Test results: patent publication EP0104596A2, “Furoindole derivatives” (TAISHO PHARMACEUTICAL CO. LTD, priority 1982, dated 1984)

How the values were obtained:
Assay type in all cases: in vivo
[1] = system: male rats of Wistar strain; experiment: Acute oral toxicity (lethality) in rats; details: 10 male Wistar rats
[2] = system: male ddY mice; experiment: Tail pressure method (analgesic effect); details: Mus musculus, po, pain threshold raised more than 50 % = positive, measured every 30 minutes for 120 minutes, read-out: Analgesic action (ED50) Tail pressure method
Protocol: (2) Tail Pressure Method [Takagi and Kameyama: Yakugaku Zasshi, 78, 553(1958)]
10 male ddY mice weighing 20 - 25 g were used in testing each compound. The pressure stimulus was applied to the base of the mouse tail. The test compounds were administered orally and the pain threshold was measured every 30 minutes for 120 minutes.
Animals of which post-drug pain threshold raised more than 50 % as compared with its pre-drug threshold were regarded as positive for the analgesic activity, and the ED50 values were calculated from the positive percent.

[3] = system: male ddY mice; experiment: Acetic acid writhing method (analgesic effect); details: Mus musculus, po, 30 minutes before i.p. 0.7 % acetic acid, writhes counted 10 to 20 minutes after injection, read-out: Analgesic action (ED50) Acetic acid writhing method
Protocol: (1) Acetic Acid Writhing Method [Koster, Anderson and De Beer: Fed. Proc., 18, 412(1959)]
10 male ddY mice weighing 19 - 23 g were used in testing each compound. The test compounds were administered orally 30 minutes before in the intraperitoneal injection (0.1 ml/ 10 g ) of 0.7 % acetic acid. The number of writhes were counted in each mouse during a period spanning 10 to 20 minutes after the acetic acid injection.
The percent inhibition was calculated as compared with the number of writhes in the control group, and the ED50 values were calculated from the inhibitory percent.

[4] = system: male Wistar rats; experiment: Randall & Selitto method (analgesic effect, brewer's yeast inflamed paw); details: Rattus norvegicus, po, 2 hours after subplantar 20 % brewer's yeast, pain threshold every 1 hour for 4 hours, read-out: Analgesic action (ED50) Randall & Selitto method
Protocol: (3) Randall & Selitto Method [Randall and Selitto: Arch. Int. Pharmacodyn. 111, 409(1957)]
6 male Wistar rats weighing 90 - 110 g were used in testing each compound. The pain threshold was measured with an analgesic meter (Ugo Basile). The test compounds were adminstered orally 2 hours after the subplantar injection(0.1 ml/rat) of 20 % brewer's yeast suspension into the right hind paw, and the pain threshold was measured every 1 hour for 4 hours.
Animals of which post-drug pain threshold raised more than 50 % as compared with the threshold in control group were regarded as positive for the analgesic activity, and the ED50 values were calculated from the positive percent.

[5] = system: male S.D. rats; experiment: Adjuvant-induced arthritic pain (analgesic effect); details: Rattus norvegicus, po, Mycobacterium butyricum polyarthritis, pain response every 1 hour for 5 hours, read-out: Analgesic action (ED50) Adjuvant-induced arthritic pain method
Protocol: (4) Adjuvant-induced Arthritic Pain [Kuzuna and Kawai: Chem. Pha^rm. Bull., ^23, 1184(1975)]
6 male S.D. rats weighing 160 - 200 g were used in testing each compound. Polyarthritis was induced by the intradermal injection (0.1 ml/rat) of 0.5 % Mycobacterium butyricum suspension into the distal portion of the tail. The pain stimulus was applied by a gentle flection of the right tarso-tibial joints repeatedly 5 times at intervals 4 to 5 seconds, the vocalization following the pain stimulus was regarded as pain response.

CCCCC(CC)C(=O)n1c2cc(C(F)(F)F)ccc2c2oc(C(=O)N3CCOCC3)cc21 (stereo not shown) [Example 1, 4-(2-ethylhexanoyl)-2-morpholinocarbonyl-6-trifluoromethyl-furo-[3,2-b]-indole]
death ([1]; 1000 mg/kg orally): no death was observed

CC(C)OC(=O)n1c2cc(C(F)(F)F)ccc2c2oc(C(=O)N3CCOCC3)cc21 [Example 2, 4-isopropoxycarbonyl-2-morpholinocarbonyl-6-trifluoromethyl-furo-[3,2-b]indole]
death ([1]; 1000 mg/kg orally): no death was observed

CC(C)CC(=O)n1c2cc(C(F)(F)F)ccc2c2oc(C(=O)N3CCOCC3)cc21 [Example 3, 4-isobutylcarbonyl-2-morpholinocarbonyl-6-trifluoromethyl-furo[3,2-b]indole]
death ([1]; 2000 mg/kg orally): no death was observed

O=C(c1cc2[nH]c3cc(C(F)(F)F)ccc3c2o1)N1CCOCC1 [R: -H, 2-morpholinocarbonyl-6-trifluoromethyl-4H-furo[3,2-b]indole]
ED50 [2]: > 100 mg/kg
ED50 [3]: > 100 mg/kg
ED50 [4]: > 100 mg/kg
ED50 [5]: > 100 mg/kg
